The text below walks through data of patent US10653704B2, “Inhalable formulation” (Teva Branded Pharmaceutical Products R&D, Inc., priority 2014, dated 2020).

What all share (type): physicochemical
Data set [1] can be described thus: Amorphous content after conditioning in HFA134a. On the procedure: Heating is performed at a temperature of 30-50° C., more preferably at a temperature of 35-45° C., and most preferably at a temperature of 38-42° C. The heating step, in the presence of the propellant, is a conditioning step for the API, in order to reduce the amorphous content of the API, without affecting the PSD. Amorphous content may be determined by solution microcalorimetry. Fluticasone propionate was conditioned in a drug-addition vessel. A 5% concentration of fluticasone propionate in HFA134a was treated at 40° C. for 48-72 h with a gentle rocking motion. HFA134a was vented and the remaining material was assessed in regard to its amorphous content.

Data set [2] is described as follows: Particle size distribution by Malvern, conditioning studies untreated versus treated.
The nature of data set [3]: Scanning electron microscope images pre- and post-conditioning. The settings on record: post-conditioning versus pre-conditioning, Experiments 1 and 2. An excerpt:
FIGS. 1 and 2 show scanning electron microscope images of fluticasone propionate, pre-conditioning (the first image in each Figure) and post-conditioning (the second image in each Figure). FIGS. 1 and 2 are taken from Experiments 1 and 2 in Table 1 and show scanning electron microscopic images of fluticasone propionate, pre-conditioning (the first image in each Figure) and post-conditioning (the second image in each Figure).

Data set [4] can be described thus: Particle size distribution by Malvern, conditioning studies untreated versus treated. How it is done:
Fluticasone propionate was conditioned in a drug-addition vessel. A 5% concentration of fluticasone propionate in HFA134a was treated at 40° C. for 48-72 h with a gentle rocking motion. HFA134a was vented and the remaining material was assessed in regard to its amorphous content.
The source holds these as a separate data set.

The mark [5] stands for this setting: Experiment 1, 5% in HFA134a, 40° C. for 48-72 h (with agitation).
[6] abbreviates: Experiment 1, 5% in HFA134a, 40° C. for 72 h (with agitation).
[7] abbreviates: Experiment 1, Control (untreated).
Where [8] appears, read: Experiment 2, 5% in HFA134a, 40° C. for 48-72 h (with agitation).
[9] abbreviates: Experiment 2, Control (untreated).

SMILES strings stand for the structures.

Regarding `CCC(=O)O[C@]1(C(=O)SCF)[C@H](C)C[C@H]2[C@@H]3C[C@H](F)C4=CC(=O)C=C[C@]4(C)[C@@]3(F)[C@@H](O)C[C@@]21C` [fluticasone propionate], the Amorphous content in data set [1] (setting [5]) turned out to be 2.3%; in data set [1] (setting [6]) it was 1.1%; in data set [1] (setting [7]), 7.2%; in data set [1] (setting [8]), 1.1%; in data set [1] (setting [9]), 2.3%. The “Particle size distribution by Malvern D50” value in data set [2] (setting [5]) turned out to be 1.5 μm; in data set [2] (setting [6]) it was 1.4 μm; in data set [2] (setting [7]), 1.5 μm; in data set [2] (setting [9]) it was 1.7 μm; in data set [4] (setting [8]), 2.0 μm. The “Particle size distribution by Malvern D10” value in data set [2] (setting [7]) stood at 0.6 μm; in data set [2] (setting [9]), 0.6 μm; in data set [4] (setting [5]), 0.6 μm; in data set [4] (setting [6]), 0.6 μm; in data set [4] (setting [8]), 0.7 μm. In addition, the “Particle size distribution by Malvern D90” value in data set [2] (setting [7]) was determined as 3.2 μm; in data set [2] (setting [8]) it was 4.7 μm; in data set [2] (setting [9]), 5.0 μm; in data set [4] (setting [5]), 3.2 μm; in data set [4] (setting [6]) it was 2.9 μm. Also, the “Crystallinity by SEM images” value in data set [3] is “increased crystallinity”.
